Data published in patent US8299070B2, “Indole compounds and pharmaceutical use thereof” (Japan Tobacco Inc., priority 2009, dated 2012).

The compounds below were run against T1, hITK enzyme (FLAG-tagged full-length hITK) (Homo sapiens, UniProt Q08881) (assay: ITK inhibitory activity (HTRF kinase assay, biotinylated GST-SLP76 substrate)). Details: IC50 calculated from the 2 test compound concentrations sandwiching 50% ITK inhibitory rate.
T1 construct: strongly expressing FLAG-tagged full-length hITK in Sf9 cells; FLAG; made in house; host or cells: Sf9 insect cells (ITK); Escherichia coli (GST-SLP76 substrate)
T1 sequence (Q08881 1-620): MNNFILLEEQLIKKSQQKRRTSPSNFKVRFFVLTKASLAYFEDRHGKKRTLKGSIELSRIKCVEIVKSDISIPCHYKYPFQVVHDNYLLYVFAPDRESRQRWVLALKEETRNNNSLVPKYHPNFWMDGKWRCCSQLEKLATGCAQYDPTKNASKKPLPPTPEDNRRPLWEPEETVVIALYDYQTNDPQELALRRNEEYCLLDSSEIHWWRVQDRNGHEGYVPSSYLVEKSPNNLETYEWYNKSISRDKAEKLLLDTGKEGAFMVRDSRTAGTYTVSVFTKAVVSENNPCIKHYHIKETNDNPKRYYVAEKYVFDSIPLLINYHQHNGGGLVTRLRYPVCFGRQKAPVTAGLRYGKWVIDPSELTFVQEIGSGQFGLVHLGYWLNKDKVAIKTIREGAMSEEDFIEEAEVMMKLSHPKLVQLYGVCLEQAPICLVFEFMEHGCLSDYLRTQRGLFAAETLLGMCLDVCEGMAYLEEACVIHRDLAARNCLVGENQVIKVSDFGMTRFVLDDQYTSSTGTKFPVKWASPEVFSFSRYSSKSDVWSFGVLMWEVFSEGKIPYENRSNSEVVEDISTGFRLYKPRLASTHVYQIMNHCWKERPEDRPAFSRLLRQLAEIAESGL
Format: biochemical
How it was run: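 Sf9-expressed hITK (50 ng/mL enzyme solution) reacted 10 min at RT in MOPS pH 7.0, 10 mmol/L MgCl2, 1 mmol/L DTT with E. coli SLP76 aa95–175 substrate; substrate solution held 100 µmol/L ATP (6 µmol/L for selected compounds). HTRF 665/620 ratio, blank-corrected; IC50 interpolated between two concentrations bracketing 50% inhibition.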

Question: Which IC50 does the source give for CN(C(=O)C(C)(C)CO)c1ccc2cc(-c3n[nH]c4c3CCC(C)(C)C4)[nH]c2c1 [Example 76] here?
Answer: 4 nM

Question: COCCN(C(=O)CN1C[C@@H](C)OCC1=O)c1ccc2cc(-c3n[nH]c4c3CCC(C)(C)C4)[nH]c2c1 [Example 283] was tested. Which IC50 did it give?
Answer: 2 nM

Question: For CC(C)OCC(O)C(=O)N(C)c1ccc2cc(-c3n[nH]c4c3CCC(C)(C)C4)[nH]c2c1 (stereo not drawn) [Example 132], which IC50 is on record?
Answer: 13 nM

Question: Which IC50 does the source give for CC1(C)CCc2c(-c3cc4ccc(N(CCO)C(=O)C5CCOCC5)cc4[nH]3)n[nH]c2C1 [Example 236] here?
Answer: 6 nM

Question: CC(C(=O)N(CCO)c1ccc2cc(-c3n[nH]c4c3CCC(C)(C)C4)[nH]c2c1)C1CCCCC1 (stereo not drawn) [Example 241] was tested. Which IC50 did it give?
Answer: 23 nM

Question: How did the IC50 turn out when CN(C)CCNC(=O)c1ccc2[nH]c(-c3n[nH]c4c3CCC(C)(C)C4)cc2c1 [Example 323] was run?
Answer: 34 nM

Question: With CCN(C(=O)[C@H](C)N1CCOCC1)c1ccc2cc(-c3n[nH]c4c3CCC(C)(C)C4)[nH]c2c1 [Example 275] as the compound, how does the IC50 read?
Answer: 2 nM

Question: Cn1cccc1CNC(=O)c1ccc2[nH]c(-c3n[nH]c4c3CCC(C)(C)C4)cc2c1 [Example 319] was tested. Which IC50 did it give?
Answer: 46 nM

Question: CN(C(=O)C(CO)OC1CCCC1)c1ccc2cc(-c3n[nH]c4c3CCC(C)(C)C4)[nH]c2c1 (stereo not drawn) [Example 158] was tested. Which IC50 did it give?
Answer: 5 nM

Question: For CC(C)CN(C)C(=O)c1ccc2cc(-c3n[nH]c4c3CCC(C)(C)C4)[nH]c2c1 [Example 17], which IC50 is on record?
Answer: 5 nM

Question: CCN(C(=O)CN1C[C@@H](C)OCC1=O)c1ccc2cc(-c3n[nH]c4c3CCC(C)(C)C4)[nH]c2c1 [Example 282] was tested. Which IC50 did it give?
Answer: 2 nM

Question: Which IC50 does the source give for CC1CCN(CC(=O)N(CCO)c2ccc3cc(-c4n[nH]c5c4CCC(C)(C)C5)[nH]c3c2)C1=O (stereo not drawn) [Example 257] here?
Answer: 1 nM

Question: With CCC(=O)N(CCO)c1ccc2cc(-c3n[nH]c4c3CCC(C)(C)C4)[nH]c2c1 [Example 209] as the compound, how does the IC50 read?
Answer: 4 nM

Question: With CCC(O)C(=O)N(C)c1ccc2cc(-c3n[nH]c4c3CCC(C)(C)C4)[nH]c2c1 (stereo not drawn) [Example 49] as the compound, how does the IC50 read?
Answer: 3 nM

Question: With C[C@@H]1CCc2c(-c3cc4ccc(N(C)C(=O)c5ccccc5)cc4[nH]3)n[nH]c2C1 [Example 358] as the compound, how does the IC50 read?
Answer: 38 nM

Question: CC1(C)CCc2c(-c3cc4cc(C(=O)N5CCN(C(=O)OC(C)(C)C)CC5)ccc4[nH]3)n[nH]c2C1 [Example 336] was tested. Which IC50 did it give?
Answer: 78 nM

Question: CC1(C)CCc2c(-c3cc4cc(C(=O)N5CCCCC5)ccc4[nH]3)n[nH]c2C1 [Example 333] was tested. Which IC50 did it give?
Answer: 106 nM

Question: Which IC50 does the source give for CC(C)(C)CNC(=O)c1ccc2cc(-c3n[nH]c4c3CCC(C)(C)C4)[nH]c2c1 [Example 11] here?
Answer: 36 nM

Question: With COC[C@@H]1CCC(=O)N1CC(=O)N(C)c1ccc2cc(-c3n[nH]c4c3CCC(C)(C)C4)[nH]c2c1 [Example 197] as the compound, how does the IC50 read?
Answer: 2 nM

Question: For CN(C(=O)C1CCCO1)c1ccc2cc(-c3n[nH]c4c3CCC(C)(C)C4)[nH]c2c1 (stereo not drawn) [Example 52], which IC50 is on record?
Answer: < 3 nM

Question: CCC(=O)N(C)c1ccc2cc(-c3n[nH]c4c3CCC(C)C4)[nH]c2c1 (stereo not drawn) [Example 355] was tested. Which IC50 did it give?
Answer: 9 nM

Question: For CN(C(=O)CN1CCCC1=O)c1ccc2cc(-c3n[nH]c4c3CCC(C)(C)C4)[nH]c2c1 [Example 83], which IC50 is on record?
Answer: < 3 nM

Question: CC1(C)CCc2c(-c3cc4ccc(N5CCOC5=O)cc4[nH]3)n[nH]c2C1 [Example 208] was tested. Which IC50 did it give?
Answer: 29 nM

Question: For CN(C(=O)C1CCCCC1)c1ccc2cc(-c3n[nH]c4c3CCC(C)(C)C4)[nH]c2c1 [Example 124], which IC50 is on record?
Answer: 12 nM

Question: How did the IC50 turn out when CC(C)CC(=O)N(C)c1ccc2cc(-c3n[nH]c4c3CCC(C)(C)C4)[nH]c2c1 [Example 40] was run?
Answer: 6 nM

Question: CN(C(=O)CC1CCC(=O)N1)c1ccc2cc(-c3n[nH]c4c3CCC(C)(C)C4)[nH]c2c1 (stereo not drawn) [Example 143] was tested. Which IC50 did it give?
Answer: 3 nM

Question: How did the IC50 turn out when CCC(=O)N(C)c1ccc2cc(-c3n[nH]c4c3CC(OC)CC4)[nH]c2c1 (stereo not drawn) [Example 368] was run?
Answer: 131 nM

Question: How did the IC50 turn out when CC(C(=O)N(C)c1ccc2cc(-c3n[nH]c4c3CCC(C)(C)C4)[nH]c2c1)N1CCCCC1=O (stereo not drawn) [Example 133] was run?
Answer: 10 nM

Question: For CCC(=O)N(C)c1ccc2cc(-c3n[nH]c4c3CCC(C)(C)C4)[nH]c2c1 [Example 70], which IC50 is on record?
Answer: 3 nM

Question: With CC1(C)CCc2c(-c3cc4cc(C(=O)NC(C)(C)CO)ccc4[nH]3)n[nH]c2C1 [Example 320] as the compound, how does the IC50 read?
Answer: 49 nM

Question: With COCC1(C)CCc2c(-c3cc4ccc(N(C)C(=O)CN5CCCCC5=O)cc4[nH]3)n[nH]c2C1 (stereo not drawn) [Example 347] as the compound, how does the IC50 read?
Answer: 4 nM

Question: Which IC50 does the source give for CN(C)CCN(C(=O)CC1CCOCC1)c1ccc2cc(-c3n[nH]c4c3CCC(C)(C)C4)[nH]c2c1 [Example 221] here?
Answer: 3 nM

Question: CC(C)OC(CO)C(=O)N(C)c1ccc2cc(-c3n[nH]c4c3CCC(C)(C)C4)[nH]c2c1 (stereo not drawn) [Example 159] was tested. Which IC50 did it give?
Answer: 7 nM

Question: For CN(C(=O)Cn1ccnc1)c1ccc2cc(-c3n[nH]c4c3CCC(C)(C)C4)[nH]c2c1 [Example 89], which IC50 is on record?
Answer: < 3 nM

Question: CC(=O)N(C)[C@@H](C)C(=O)N(C)c1ccc2cc(-c3n[nH]c4c3CCC(C)(C)C4)[nH]c2c1 [Example 202] was tested. Which IC50 did it give?
Answer: 14 nM

Question: How did the IC50 turn out when COCCN(C(=O)CN1CCC(C)(C)C1=O)c1ccc2cc(-c3n[nH]c4c3CCC(C)(C)C4)[nH]c2c1 [Example 285] was run?
Answer: 2 nM

Question: How did the IC50 turn out when CCC(=O)N(C)[C@@H](C)C(=O)N(C)c1ccc2cc(-c3n[nH]c4c3CCC(C)(C)C4)[nH]c2c1 [Example 203] was run?
Answer: 12 nM

Question: For CC1(C)CCc2c(-c3cc4cc(C(=O)NCC(=O)O)ccc4[nH]3)n[nH]c2C1 [Example 306], which IC50 is on record?
Answer: 27 nM

Question: For COCC(=O)N(C)c1ccc2cc(-c3n[nH]c4c3CCC(C)(C)C4)[nH]c2c1 [Example 36], which IC50 is on record?
Answer: < 3 nM

Question: CC(C)CC(=O)N(CCO)c1ccc2cc(-c3n[nH]c4c3CCC(C)(C)C4)[nH]c2c1 [Example 247] was tested. Which IC50 did it give?
Answer: 4 nM

Question: How did the IC50 turn out when CC(C)CC(=O)N(C)c1ccc2[nH]c(-c3n[nH]c4c3CCC(C)(C)C4)cc2c1 [Example 342] was run?
Answer: 245 nM

Question: CN(C(=O)c1ccccc1)c1ccc2cc(-c3n[nH]c4c3CCC(C)(C)C4)[nH]c2c1 [Example 30] was tested. Which IC50 did it give?
Answer: 10 nM

Question: How did the IC50 turn out when CN(CC(=O)N(C)c1ccc2cc(-c3n[nH]c4c3CCC(C)(C)C4)[nH]c2c1)C(=O)C(C)(C)C [Example 179] was run?
Answer: 1 nM

Question: Which IC50 does the source give for COC[C@H]1CCC(=O)N1CC(=O)N(C)c1ccc2cc(-c3n[nH]c4c3CCC(C)(C)C4)[nH]c2c1 [Example 196] here?
Answer: 4 nM

Question: With CO[C@@H](C)C(=O)N(C)c1ccc2cc(-c3n[nH]c4c3CCC(C)(C)C4)[nH]c2c1 [Example 169] as the compound, how does the IC50 read?
Answer: 3 nM

Question: CC1(C)CCc2c(-c3cc4ccc(N5CCC(C)(CO)C5=O)cc4[nH]3)n[nH]c2C1 (stereo not drawn) [Example 230] was tested. Which IC50 did it give?
Answer: 25 nM

Question: How did the IC50 turn out when CCN(C(=O)CC1CCC(OC)CC1)c1ccc2cc(-c3n[nH]c4c3CCC(C)(C)C4)[nH]c2c1 (stereo not drawn) [Example 273] was run?
Answer: 11 nM

Question: How did the IC50 turn out when CN(CC(=O)O)C(=O)c1ccc2[nH]c(-c3n[nH]c4c3CCC(C)(C)C4)cc2c1 [Example 312] was run?
Answer: 27 nM

Question: With CN(C(=O)CC(C)(C)O)c1ccc2cc(-c3n[nH]c4c3CCC(C)(C)C4)[nH]c2c1 [Example 69] as the compound, how does the IC50 read?
Answer: 4 nM

Question: How did the IC50 turn out when CC1(C)CCc2c(-c3cc4cc(C(=O)N5CCOCC5)ccc4[nH]3)n[nH]c2C1 [Example 298] was run?
Answer: 44 nM

Question: CC1(C)CCc2c(-c3cc4cc(C(=O)NCc5nccs5)ccc4[nH]3)n[nH]c2C1 [Example 316] was tested. Which IC50 did it give?
Answer: 47 nM

Question: CC(C)OCC(=O)N(C)c1ccc2cc(-c3n[nH]c4c3CCC(C)(C)C4)[nH]c2c1 [Example 56] was tested. Which IC50 did it give?
Answer: < 3 nM

Question: Which IC50 does the source give for CCN1CCN(C(=O)c2ccc3[nH]c(-c4n[nH]c5c4CCC(C)(C)C5)cc3c2)CC1 [Example 337] here?
Answer: 49 nM

Question: With CN(C(=O)CC1CCOCC1)c1ccc2cc(-c3n[nH]c4c3CCC(C)(C)C4)[nH]c2c1 [Example 94] as the compound, how does the IC50 read?
Answer: 4 nM
